Measurements taken from patent publication US8642644B2, “Ophthamological drugs” (Duke University, priority 2004, dated 2014).

Experiments:
[1] = system: intraocular pressure (IOP); assay: Effects on intraocular pressure (IOP) after topical administration to normotensive Dutch-belted rabbits (Example 15); type: in vivo, rabbit; details: for Maximum reduction of IOP (absolute) / Maximum reduction of IOP (percent): once a day for three days
Text: In order to study the utility of the compounds in the treatment of glaucoma, their effects on intraocular pressure (IOP) were investigated following administration to normotensive rabbits.
5-O-Ribitol [2,3-dichloro-4-(thiophene-2-carbonyl)]phenoxyacetate: 10% and 15% in a lanolin base.
5-O-Xylitol 4-(2-phenylacryloyl)cinnamate: 0.3% and 0.6% mixed equimolar with cysteine in solution.
11-Hydroxy-3,6,9-trioxaundecyl 4-(2-phenylacryloyl)cinnamate: 0.3% and 0.6% mixed equimolar with cysteine in solution.
Eyedrops administered topically to male Dutch-belted rabbits (3-5 kg). IOP determinations made with pneumatonometer (Medtronic Solan, Jacksonville, Fla.) as the average of three measurements per eye at each timepoint. Prior to IOP determination and drug administration, eyes were topically anesthetized with proparacaine hydrochloride, 0.5% (Bausch and Lomb, Inc, Tampa, Fla.).
5-O-Ribitol [2,3-dichloro-4-(thiophene-2-carbonyl)]phenoxyacetate: Eyedrops containing the compound were administered once a day for three days. The contralateral eye was administered lanolin base. IOP was assessed in the morning and afternoon for seven days.
5-O-Xylitol 4-(2-phenylacryloyl)cinnamate: Eyedrops containing the compound were administered twice daily for 7 days. The contralateral eye was left untreated to serve as a control. IOP was assessed concurrently with drug administration.
5-O-{(9α,11α,15R)-15-[2-Benzo[b]thiophen-2-yl]-16,17,18,19,20-pentanor-5,6,13,14-tetrahydro-9,11,15-trihydroxyprostanoyl}xylitol: Eyedrops containing the compound were administered once daily for 7 days. No drug was given on days 8 and 9. The animals were then treated once daily on days 10 through 14. IOP was assessed concurrently with drug administration.
1-O-{(9α,11α,15R)-15-[2-Benzo[b]thiophen-2-yl]-16,17,18,19,20-pentanor-5,6,13,14-tetrahydro-9,11,15-trihydroxyprostanoyl}-11-hydroxy-3,6,9-trioxaundecane: Eyedrops containing the compound were administered once daily for 5 days. The contralateral eye was left untreated to serve as a control. IOP was assessed concurrently with drug administration.
11-Hydroxy-3,6,9-trioxaundecyl 4-(2-phenylacryloyl)cinnamate: Eyedrops containing the compound were administered twice daily for 7 days. The contralateral eye was left untreated to serve as a control. IOP was assessed concurrently with drug administration.

intraocular pressure [2] = assay: Intraocular pressure lowering by ticrynafen-ribitol ester ointment in the Dutch Belted rabbit model (Example 3); type: in vivo; details: for Maximal pressure reduction: topical, doses at 0, 24 and 48 hours
Procedure: Ticrynafen-ribitol ester was formulated as an ointment in 5, 10, and 15% concentrations. The Dutch Belted rabbit model was used to test the formulation for both pressure lowering and side effects. Baseline intraocular pressures were obtained by placing one drop of proparacaine in each eye followed by pressure measurements utilizing a Pneumotonometer®. […] The second eye was used as a control with application of lanolin ointment without drug. Repeat doses were given at 24 hour intervals for a total of three doses (0, 24, and 48 hours). Intraocular pressures were recorded every 12 hours for one week. A total of twelve rabbits received the 5% ointment, eight rabbits the 10% ointment, and eight rabbits the 15% ointment. FIG. 4 presents the 10% data with statistically significant timepoints indicated by double asterisks.

[3] = Solubility in petrolatum/lanolin mixtures; type: physicochemical
[4] = Activity against glaucoma (stated in words)
intraocular pressure [5] = assay: Intraocular pressure lowering by 0.004% AR101 solution in the Dutch Belted rabbit model (Example 6); type: in vivo; details: 0.004% solution; loading dose 3 drops day 0 and 10, one drop daily days 1-7 and 10-14; versus contralateral control eye
Text: The xylitol prostaglandin ester of Formula V (also called AR101) was formulated as a 0.004% solution for topical administration. The Dutch Belted Rabbit model was used to test the formulation for both pressure lowering and side effects. Baseline intraocular pressures were obtained by placing one drop of proparacaine in each eye followed by pressure measurements with a Pneumotonometer®. One eye of each rabbit received a loading dose of 3 drops 0.004% AR101 on day 0 and day 10. One drop of AR101 was given daily on days 1-7 and 10-14. No drug was given on days 8 and 9. The contralateral control eye received balanced salt solution drops without AR101. Intraocular pressure measurements were recorded every 12 hours for two weeks.

[6] = 0.004% in solution, once daily for 5 days
[7] = 0.02% in solution, once daily for 5 days
[8] = 0.3% mixed equimolar with cysteine in solution, twice daily for 7 days
[9] = 0.6% mixed equimolar with cysteine in solution, twice daily for 7 days
[10] = 10% in lanolin base, at 36 hours
[11] = 15% in lanolin base, at 60 hours
[12] = 0.004% in solution, once daily days 1-7 and 10-14

Procedure for pig liver esterase: Since the sugar alcohol moiety imparts water-solubility to the compounds, an assay can be readily set up to determine the optimal sugar alcohol for each drug moiety based on the release rate thus: A commercially-available preparation of esterase, such as porcine liver esterase (Sigma Corp., St. Louis), is prepared at a standard concentration. The drug-sugar alcohol combination, dissolved in methanol or a methanol-water or methanol-acetonitrile combination, is added dropwise to the esterase and the rate at which the compound is released from the alcohol is determined. The analytical technique used to determine the amount of free acid will vary with the acid used, but a typical procedure would be by TLC, or reverse-phase TLC, or HPLC or by Mass Spectroscopy. One skilled in the art can readily determine the optimal analytical method for each sugar-acid pair evaluated. This assay can easily be adapted to be run in a 96-well plate format, or other high-throughput method of determining activity.

Q: With `O=C(CCCCCC[C@@H]1[C@@H](CCC(O)c2cc3ccccc3s2)[C@H](O)C[C@@H]1O)OCCOCCOCCOCCO` (stereo partly drawn) [1-O-{(9α,11α,15R)-15-[2-Benzo[b]thiophen-2-yl]-16,17,18,19,20-pentanor-5,6,13,14-tetrahydro-9,11,15-trihydroxyprostanoyl}-11-hydroxy-3,6,9-trioxaundecane] as the compound, how does the “Maximum reduction from untreated control” value [1, 6] read?
A: −2.8 mmHg

Q: And the “Maximum reduction from untreated control (percent)” value [1, 6]?
A: 12%

Q: What about the “Maximum reduction from untreated control” value [1, 7] of the same compound?
A: −3.0 mmHg

Q: And the “Maximum reduction from untreated control (percent)” value [1, 7]?
A: 17%

Q: With `C=C(C(=O)c1ccc(C=CC(=O)OCCOCCOCCOCCO)cc1)c1ccccc1` [11-Hydroxy-3,6,9-trioxaundecyl 4-(2-phenylacryloyl)cinnamate] as the compound, how does the “Maximum reduction from untreated control” value [1, 8] read?
A: −1.7 mmHg

Q: What about the “Maximum reduction from untreated control (percent)” value [1, 8] of the same compound?
A: 8%

Q: And the “Maximum reduction from untreated control” value [1, 9]?
A: −1.9 mmHg

Q: And the “Maximum reduction from untreated control (percent)” value [1, 9]?
A: 8%

Q: Which “Maximum reduction of IOP (absolute)” value [1, 10] does the source give for `O=C(COc1ccc(C(=O)c2cccs2)c(Cl)c1Cl)OC[C@H](O)[C@H](O)[C@H](O)CO` [Formula III, 5-O-Ribitol [2,3-dichloro-4-(thiophene-2-carbonyl)]phenoxyacetate] here?
A: −4.3

Q: What about the “Maximum reduction of IOP (percent)” value [1, 10] of the same compound?
A: 18%

Q: What about the “Maximum reduction of IOP (absolute)” value [1, 11] of the same compound?
A: −3.0

Q: And the “Maximum reduction of IOP (percent)” value [1, 11]?
A: 13%

Q: What about the Maximal pressure reduction (intraocular pressure [2]; 5% ointment, maximum at 54 hours) of the same compound?
A: 11%

Q: And the Maximal pressure reduction (intraocular pressure [2]; 10% ointment, maximum at 36 hours)?
A: 18%

Q: And the Maximal pressure reduction (intraocular pressure [2]; 15% ointment, maximum at 60 hours)?
A: 13%

Q: What about the “Reduction of intraocular pressure (IOP), in words” value (intraocular pressure [2]; Dutch-Belted white rabbits, petrolatum/lanolin ointment) of the same compound?
A: reduces intraocular pressure (IOP) in a dose-dependent fashion

Q: And the “Solubility in petrolatum/lanolin mixtures” value [3]?
A: completely soluble

Q: With `O=C(O)CCCCCC[C@@H]1[C@@H](CC[C@@H](O)c2cc3ccccc3s2)[C@H](O)C[C@@H]1O` [Formula II] as the compound, how does the “Activity against glaucoma, in words” value [4] read?
A: strong activity against glaucoma

Q: Which “Activity against glaucoma, in words” value [4] does the source give for `O=C(O)COc1ccc(C(=O)c2cccs2)c(Cl)c1Cl` [Formula IV, Ticrynafen] here?
A: little or no activity

Q: Which results are given for `O=C(CCCCCC[C@@H]1[C@@H](CC[C@@H](O)c2cc3ccccc3s2)[C@H](O)C[C@@H]1O)OC[C@@H](O)[C@H](O)[C@@H](O)CO` [Formula V, 5-O-{(9α,11α,15R)-15-[2-Benzo[b]thiophen-2-yl]-16,17,18,19,20-pentanor-5,6,13,14-tetrahydro-9,11,15-trihydroxyprostanoyl}xylitol]?
A: Statistically significant pressure reductions between eyes (days) (intraocular pressure [5]): Statistically significant pressure reductions between eyes were observed on days 3, 7, and 11; Hydrolysis by pig liver esterase (pig liver esterase): readily hydrolyzed; Significant reductions of IOP from baseline (days) [1, 12]: Significant reductions from baseline on days 2, 3, 5, 11, and 12; Significant reductions of IOP from baseline and untreated control (days) [1, 12]: Significant reductions from baseline and untreated control on days 3, 5, and 11

Q: For `C=C(C(=O)c1ccc(/C=C/C(=O)OC[C@@H](O)[C@H](O)[C@@H](O)CO)cc1)c1ccccc1` [Formula VIII, 5-O-Xylitol 4-(2-phenylacryloyl)cinnamate], which “Maximum reduction from untreated control” value [1, 8] is on record?
A: −2.4 mmHg

Q: And the “Maximum reduction from untreated control (percent)” value [1, 8]?
A: 11%

Q: What about the “Maximum reduction from untreated control” value [1, 9] of the same compound?
A: −2.4 mmHg

Q: What about the “Maximum reduction from untreated control (percent)” value [1, 9] of the same compound?
A: 13%
